{"source": "ChEMBL document CHEMBL1136591", "about": "“Novel N1-(benzyl)cinnamamidine derived NR2B subtype-selective NMDA receptor antagonists” (Bioorg Med Chem Lett, 2003)", "data": [{"test_system": "Glutamate NMDA receptor GRIN1/GRIN2A (Homo sapiens)", "assay": "Inhibition of the response to glutamate/glycine in NR1a/NR2A expressing cells (No effect uM); call rule not given here", "values": [{"smiles": "N=C(/C=C/c1ccccc1)NCc1ccccc1", "IC50": "Not Active"}]}, {"target": "T1, Glutamate NMDA receptor; GRIN1/GRIN2B (Homo sapiens, UniProt Q05586+Q13224)", "T1 sequence (Q13224 whole entry, other chains not shown)": "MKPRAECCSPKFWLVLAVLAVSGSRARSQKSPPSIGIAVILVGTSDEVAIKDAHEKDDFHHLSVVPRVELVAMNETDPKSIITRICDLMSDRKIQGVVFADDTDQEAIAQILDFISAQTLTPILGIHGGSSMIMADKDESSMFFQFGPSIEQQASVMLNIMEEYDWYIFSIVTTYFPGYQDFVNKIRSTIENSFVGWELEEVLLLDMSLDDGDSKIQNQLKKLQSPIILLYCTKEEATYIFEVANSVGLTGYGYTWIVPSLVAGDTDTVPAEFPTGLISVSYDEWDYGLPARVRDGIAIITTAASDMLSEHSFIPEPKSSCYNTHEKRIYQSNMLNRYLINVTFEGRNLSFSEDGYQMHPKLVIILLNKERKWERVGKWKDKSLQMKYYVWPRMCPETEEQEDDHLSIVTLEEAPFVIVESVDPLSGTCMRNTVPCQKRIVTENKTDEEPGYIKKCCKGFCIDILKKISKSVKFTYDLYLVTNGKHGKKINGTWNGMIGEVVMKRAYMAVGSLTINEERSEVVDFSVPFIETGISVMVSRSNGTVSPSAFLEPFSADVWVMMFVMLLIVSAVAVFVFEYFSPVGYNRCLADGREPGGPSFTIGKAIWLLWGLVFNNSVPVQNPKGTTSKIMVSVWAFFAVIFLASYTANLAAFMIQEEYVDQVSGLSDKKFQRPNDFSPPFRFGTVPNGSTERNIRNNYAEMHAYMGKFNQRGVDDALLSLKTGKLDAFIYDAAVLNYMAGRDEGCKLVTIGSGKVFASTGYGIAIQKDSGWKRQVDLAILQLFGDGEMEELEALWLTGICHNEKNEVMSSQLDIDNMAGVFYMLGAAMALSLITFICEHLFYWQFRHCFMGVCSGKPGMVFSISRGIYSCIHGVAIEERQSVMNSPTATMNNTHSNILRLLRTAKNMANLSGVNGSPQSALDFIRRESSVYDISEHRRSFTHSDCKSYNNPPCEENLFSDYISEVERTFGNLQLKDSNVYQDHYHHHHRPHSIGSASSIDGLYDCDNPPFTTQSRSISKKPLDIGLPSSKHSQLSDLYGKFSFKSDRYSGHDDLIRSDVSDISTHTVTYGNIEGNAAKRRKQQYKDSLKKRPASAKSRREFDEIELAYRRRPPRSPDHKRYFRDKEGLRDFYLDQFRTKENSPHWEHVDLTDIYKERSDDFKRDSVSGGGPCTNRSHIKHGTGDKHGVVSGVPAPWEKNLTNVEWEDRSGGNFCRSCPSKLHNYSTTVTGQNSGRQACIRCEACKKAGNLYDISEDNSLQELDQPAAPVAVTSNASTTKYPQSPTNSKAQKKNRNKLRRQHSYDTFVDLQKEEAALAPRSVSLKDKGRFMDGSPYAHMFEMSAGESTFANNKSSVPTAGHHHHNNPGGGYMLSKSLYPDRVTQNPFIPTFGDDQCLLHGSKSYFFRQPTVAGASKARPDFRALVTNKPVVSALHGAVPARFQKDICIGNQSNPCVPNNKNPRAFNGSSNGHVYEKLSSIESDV", "assay": "Displacement of [3H]ifenprodil binding to recombinant human NR1a/NR2B receptors expressed in L(tk-) cells", "type": "cell-based", "units": {"Ki": "nM"}, "values": [{"smiles": "CCOc1ccccc1C/N=C(N)/C=C/c1ccccc1", "Ki": 0.5}, {"smiles": "N=C(/C=C/c1ccccc1)NCc1cc(Cl)cc(Cl)c1", "Ki": 1.4}, {"smiles": "N=C(NCc1cccc(Cl)c1)c1ccc2ccccc2c1", "Ki": 1.6}, {"smiles": "N=C(/C=C/c1cccc(Cl)c1)NCc1ccccc1", "Ki": 12}, {"smiles": "N=C(/C=C/c1ccc(Cl)cc1)NCc1ccccc1", "Ki": 52}, {"smiles": "N=C(NCCc1ccccc1)c1ccccc1", "Ki": 55}, {"smiles": "COc1ccccc1C/N=C(\\N)c1ccc2ccccc2c1", "Ki": 1.3}, {"smiles": "N=C(/C=C/c1ccc(F)cc1)NCc1ccccc1", "Ki": 5.7}, {"smiles": "N=C(/C=C/c1ccc(F)c(F)c1)NCc1ccccc1", "Ki": 1.7}, {"smiles": "N=C(/C=C/c1ccccc1)NCc1cccc(Cl)c1", "Ki": 0.8}, {"smiles": "N=C(/C=C/c1ccccc1Cl)NCc1ccccc1", "Ki": 93}, {"smiles": "N=C(/C=C/c1ccccc1)NCCc1ccccc1", "Ki": 97}, {"smiles": "COc1cccc(C/N=C(N)/C=C/c2ccccc2)c1", "Ki": 1.9}, {"smiles": "N=C(/C=C/c1ccccc1)NCc1ccc(Cl)cc1", "Ki": 77}, {"smiles": "N=C(/C=C/C1CCCCC1)NCc1ccccc1", "Ki": 19}, {"smiles": "N=C(/C=C/c1ccccc1)NCCCc1ccccc1", "Ki": 120}, {"smiles": "N=C(/C=C/c1ccccc1)NCc1ccccc1Cl", "Ki": 1}, {"smiles": "N=C(/C=C/c1ccccc1)NCc1cccc(C(F)(F)F)c1", "Ki": 31}, {"smiles": "C[C@@H](CN1CCC(Cc2ccccc2)CC1)[C@@H](O)c1ccc(O)cc1", "Ki": 10}, {"smiles": "NC(=NCc1ccccc1)c1ccccc1", "Ki": 10000}, {"smiles": "N=C(/C=C/c1ccccc1)NCc1cccc(Cl)c1Cl", "Ki": 3.6}, {"smiles": "N=C(/C=C/c1ccccc1)NCc1ccccc1OC(F)(F)F", "Ki": 0.6}, {"smiles": "N=C(CCc1ccccc1)NCc1ccccc1", "Ki": 530}, {"smiles": "N=C(/C=C/c1ccccc1)NCc1ccccc1C(F)(F)F", "Ki": 1.4}, {"smiles": "N=C(NCc1ccccc1)c1ccc2ccccc2c1", "Ki": 32}, {"smiles": "N=C(NCc1ccccc1Cl)c1ccc2ccccc2c1", "Ki": 7.3}, {"smiles": "N=C(/C=C/c1ccccc1)NCc1cc(Cl)ccc1Cl", "Ki": 2.7}]}, {"target": "T1, Glutamate NMDA receptor; GRIN1/GRIN2B", "assay": "Inhibition of the response to glutamate/glycine in NR1a/NR2B expressing cells", "type": "functional, cell-based", "units": {"IC50": "nM"}, "values": [{"smiles": "N=C(/C=C/c1ccccc1)NCc1ccccc1", "IC50": 70}]}]}
